Test results published in patent US12480137B2, “Plants having increased tolerance to herbicides” (BASF SE, priority 2014, dated 2025).

Columns and labels:
Format in all cases: in vivo, Arabidopsis thaliana
[1] = test system: Arabidopsis mutant line Cesa1_G1009D; assay: Growth inhibition of Arabidopsis lines in 48-well plates, tolerance factor from IC50; details: growth inhibition seven to ten days after seeding
Text: (§1) For selection of cellulose biosynthesis inhibitor resistant plants EMS mutagenized seed populations of Arabidopsis thaliana are used. EMS mutagenized seed populations are either bought from Lehle Seeds (1102 South Industrial Blvd. Suite D, Round Rock, Texas USA) or are generated as described elsewhere (Heim D R, et. al. (1989) Plant Physiol. 90: 146-150). Causative mutations in CESA wildtype sequences (e.g. SEQ ID NO: 1 or 3) are identified as described by Scheible W R et. al. (2001, Proc. Natl. Acad. of Sci. 98: 10079-10084), McCourt et. al. (WO2013/142968) or with the use of next generation sequencing methods as described by Austin R S, et. al. (2011) Plant Journal 67: 715-725.
(§2) Selected Arabidopsis thaliana lines were assayed for improved resistance to azines like 6-cyclopentyl-N4-(2,3,4,5,6-pentafluorophenyl)-1,3,5-triazine-2,4-diamine; 6-(1-fluoro-1-methyl-ethyl)-N4-(2,3,4,5,6-pentafluorophenyl)-1,3,5-triazine-2,4-diamine; 6-cyclohexyl-N2-(2,3,4,5,6-pentafluorophenyl)-1,3,5-triazine-2,4-diamine; 6-(2,6-difluorophenyl)-N2-(2,3,5,6-tetrafluorophenyl)-1,3,5-triazine-2,4-diamine; N2-(4-chloro-3,5,6-trifluoro-2-pyridyl)-6-(1-fluoro-1-methyl-ethyl)-1,3,5-triazine-2,4-diamine in 48-well plates. Therefore, M2 or M3 seeds are surface sterilized by stirring for 5 min in ethanol+water (70+30 by volume), rinsing one time with ethanol+water (70+30 by volume) and two times with sterile, deionized water. The seeds are resuspended in 0.1% agar dissolved in water (w/v) Four to five seeds per well are plated on solid nutrient medium consisting of half-strength murashige skoog nutrient solution, pH 5.8 (Murashige and Skoog (1962) Physiologia Plantarum 15: 473-497). Compounds are dissolved in dimethylsulfoxid (DMSO) and added to the medium prior solidification (final DMSO concentration 0.1%). Multi well plates are incubated in a growth chamber at 22° C., 75% relative humidity and 110 μmol Phot*m^−2*s^−1 with 14:10 h light:dark photoperiod. Growth inhibition is evaluated seven to ten days after seeding in comparison to wild type plants. Tolerance factors are calculated based on IC50 values of growth inhibition of transformed versus non-transformed Arabidopsis plants (Table 3).

[2] = test system: wildtype Arabidopsis plants; assay: as above; details: growth inhibition seven to ten days after seeding
Text: as §1, §2

[3] = test system: Arabidopsis mutant line Cesa1_P1010L; assay: as above; details: growth inhibition seven to ten days after seeding
Text: as §1, §2

[4] = test system: Arabidopsis mutant line Cesa3_S983F; assay: as above; details: growth inhibition seven to ten days after seeding
Text: as §1, §2

[5] = test system: Arabidopsis mutant line Cesa3_S1040L; assay: as above; details: growth inhibition seven to ten days after seeding
Text: as §1, §2

[6] = test system: Arabidopsis mutant line Cesa1_G1013R; assay: as above; details: growth inhibition seven to ten days after seeding
Text: as §1, §2

[7] = test system: Arabidopsis mutant line Cesa3_S1037F; assay: as above; details: growth inhibition seven to ten days after seeding
Text: as §1, §2

[8] = test system: Cesa1_P1010L, fpx2-2 mutant line; assay: Greenhouse phytotox, pre-emergent treatment
Experimental: (§3) Additionally, M2 or M3 Arabidopsis plants are tested for improved tolerance to cellulose biosynthesis-inhibiting herbicides in greenhouse studies (e. g. with the following cellulose biosynthesis-inhibiting herbicides: 6-cyclopentyl-N4-(2,3,4,5,6-pentafluorophenyl)-1,3,5-triazine-2,4-diamine; 6-(1-fluoro-1-methyl-ethyl)-N4-(2,3,4,5,6-pentafluorophenyl)-1,3,5-triazine-2,4-diamine; N4-(4-chloro-3,5,6-trifluoro-2-pyridyl)-6-(1-fluoro-1-methyl-ethyl)-1,3,5-triazine-2,4-diamine; 6-(2,6-difluorophenyl)-N4-(2,3,5,6-tetrafluorophenyl)-1,3,5-triazine-2,4-diamine; N4-(4-bromo-2,3,5,6-tetrafluoro-phenyl)-6-(1-fluoro-1-methyl-ethyl)-1,3,5-triazine-2,4-diamine.

[9] = test system: Cesa1_G1013R, fpx2-1 mutant line; assay: Greenhouse phytotox, pre-emergent treatment
Experimental: as §3

[10] = test system: Cesa1_G1009D, fpx2-3 mutant line; assay: Greenhouse phytotox, pre-emergent treatment
Experimental: as §3

[11] = test system: Cesa3_S1037F, fpx1-2 mutant line; assay: Greenhouse phytotox, pre-emergent treatment
Experimental: as §3

[12] = test system: Cesa3_S1040L, fpx1-1 mutant line; assay: Greenhouse phytotox, pre-emergent treatment
Experimental: as §3

[13] = test system: Cesa3_S983F, fpx1-3 mutant line; assay: Greenhouse phytotox, pre-emergent treatment
Experimental: as §3

A. thaliana WT L. erecta = assay: Greenhouse phytotox, pre-emergent treatment
Experimental: as §3

CC(C)(F)c1nc(N)nc(Nc2nc(F)c(F)c(Cl)c2F)n1 [N2-(4-chloro-3,5,6-trifluoro-2-pyridyl)-6-(1-fluoro-1-methyl-ethyl)-1,3,5-triazine-2,4-diamine]
Relative tolerance rate (wildtype = 1.0) [1]: 1
Relative tolerance rate (wildtype = 1.0) [2]: 1
Relative tolerance rate (wildtype = 1.0) [3]: 1
Relative tolerance rate (wildtype = 1.0) [4]: 4
Relative tolerance rate (wildtype = 1.0) [5]: 4
Relative tolerance rate (wildtype = 1.0) [6]: 10
Relative tolerance rate (wildtype = 1.0) [7]: 10
Phytotox value on a scale from 0-100 (100 is 100% damage) ([8]; 0.0625 g ai/ha): 50
Phytotox value on a scale from 0-100 (100 is 100% damage) ([8]; 0.25 g ai/ha): 25
Phytotox value on a scale from 0-100 (100 is 100% damage) ([8]; 0.98 g ai/ha): 78
Phytotox value on a scale from 0-100 (100 is 100% damage) ([8]; 3.91 g ai/ha): 98
Phytotox value on a scale from 0-100 (100 is 100% damage) ([9]; 0.0625 g ai/ha): 40
Phytotox value on a scale from 0-100 (100 is 100% damage) ([9]; 0.25 g ai/ha): 50
Phytotox value on a scale from 0-100 (100 is 100% damage) ([9]; 0.98 g ai/ha): 70
Phytotox value on a scale from 0-100 (100 is 100% damage) ([9]; 3.91 g ai/ha): 80
Phytotox value on a scale from 0-100 (100 is 100% damage) ([10]; 0.0625 g ai/ha): 30
Phytotox value on a scale from 0-100 (100 is 100% damage) ([10]; 0.25 g ai/ha): 43
Phytotox value on a scale from 0-100 (100 is 100% damage) ([10]; 0.98 g ai/ha): 93
Phytotox value on a scale from 0-100 (100 is 100% damage) ([10]; 3.91 g ai/ha): 99
Phytotox value on a scale from 0-100 (100 is 100% damage) ([11]; 0.0625 g ai/ha): 5
Phytotox value on a scale from 0-100 (100 is 100% damage) ([11]; 0.25 g ai/ha): 15
Phytotox value on a scale from 0-100 (100 is 100% damage) ([11]; 0.98 g ai/ha): 25
Phytotox value on a scale from 0-100 (100 is 100% damage) ([11]; 3.91 g ai/ha): 25
Phytotox value on a scale from 0-100 (100 is 100% damage) ([12]; 0.0625 g ai/ha): 13
Phytotox value on a scale from 0-100 (100 is 100% damage) ([12]; 0.25 g ai/ha): 15
Phytotox value on a scale from 0-100 (100 is 100% damage) ([12]; 0.98 g ai/ha): 78
Phytotox value on a scale from 0-100 (100 is 100% damage) ([12]; 3.91 g ai/ha): 53
Phytotox value on a scale from 0-100 (100 is 100% damage) ([13]; 0.0625 g ai/ha): 23
Phytotox value on a scale from 0-100 (100 is 100% damage) ([13]; 0.25 g ai/ha): 55
Phytotox value on a scale from 0-100 (100 is 100% damage) ([13]; 0.98 g ai/ha): 48
Phytotox value on a scale from 0-100 (100 is 100% damage) ([13]; 3.91 g ai/ha): 13
Phytotox value on a scale from 0-100 (100 is 100% damage) (A. thaliana WT L. erecta; 0.0625 g ai/ha): 45
Phytotox value on a scale from 0-100 (100 is 100% damage) (A. thaliana WT L. erecta; 0.25 g ai/ha): 60
Phytotox value on a scale from 0-100 (100 is 100% damage) (A. thaliana WT L. erecta; 0.98 g ai/ha): 83
Phytotox value on a scale from 0-100 (100 is 100% damage) (A. thaliana WT L. erecta; 3.91 g ai/ha): 99
